Consider two molecules from patent US9645154B2, “Method for detecting cancer cell” (ARKRAY, Inc., priority 2010, dated 2017).

Holding throughout (type): cell-based
Test [1] has as its system human prostate cancer cell line PC3. In words: Aminolevulinic acid (with FeCl2 and ascorbic acid at the same concentration) labeling, fluorescence microscopy image analysis (positive rate). From the text: In accordance with the conventional method, cultured human prostate cancer cell line PC3 (DS Pharma Biomedical Co., Ltd.) was harvested with trypsin (Invitrogen). The human gastric cancer cell line SNU-1 (ATCC), which is a suspension cell line, was directly harvested without any trypsin treatment. The cell suspension of the harvested cancer cells was centrifuged, and the supernatant was removed. The cells were resuspended with Dulbecco's PBS (+) (Nissui Pharmaceutical Co., Ltd.) and centrifuged, and the supernatant was removed again.
When performing the hemolyzing treatment, the collected blood cell fraction was hemolyzed using ammonium chloride (STEMCELL Technologies) at room temperature according to the manufacture's manuals.
The number of the cells was counted using a hemacytometer in accordance with the conventional method, and then 10^5 to 10^6 cells per sample (cell suspension) was aliquoted. The sample was centrifuged to remove the supernatant. Subsequently, aminolevulinic acid 5-AMINOLEVULINATE HYDROCHLORIDE (trade name, Cosmo Bio Co., Ltd., at the final concentration given in Table 7 or 8) dissolved in Dulbecco's PBS (+) and FeCl2 and ascorbic acid having the same concentration as that of aminolevulinic acid, respectively, were added thereto, and the cells were suspended well. The number of the cells was adjusted, and then the cells were added dropwise to a 384-well plate. The plate was centrifuged to spin down the cells. The image was captured with a fluorescence microscope (Nikon Corp.).
The wavelengths for the fluorescence filter set: EX (excitation wavelength): 402±7.5, DM: 430 or longer, BA (fluorescence wavelength): 625±15.
(§1) The acquired images were analyzed using an image analysis software NIS-ELEMENTS (trade name, Nikon Corp.) to evaluate the fluorescence intensity of the cell. […]

Test [2] relates to normal human dermal fibroblast cell NHDF. In words: Aminolevulinic acid labeling with or without iron ion and reducing agent (degree of false-positive results). Conditions: 0.3 mM, 37° C., 60 min. The text has this: In accordance with the conventional method, human fibrosarcoma cell HT-1080 (DS Pharma Biomedical Co., Ltd.) and normal human dermal fibroblast cell NHDF (Lonza) in culture were harvested with trypsin (Invitrogen). The cell suspension of the harvested cancer cells was centrifuged, and the supernatant was removed. The cells were then resuspended with Dulbecco's PBS (+) (Nissui Pharmaceutical Co., Ltd.) and centrifuged, and the supernatant was removed again.
The number of the cells was counted using a hemacytometer in accordance with the conventional method, and then 10^5 to 10^6 cells per sample (cell suspension) was aliquoted. The sample was centrifuged to remove the supernatant. In the case an iron ion and a reducing agent were added, 0.3 mM of aminolevulinic acid (trade name: 5-AMINOLEVULINATE HYDROCHLORIDE, Cosmo Bio Co., Ltd.), 0.3 mM of FeCl2 and 0.3 mM of ascorbic acid dissolved in Dulbecco's PBS (+) were added thereto, and the cells were suspended well. In the case an iron ion and a reducing agent were not added, 0.3 mM of aminolevulinic acid dissolved in Dulbecco's PBS (+) was added singly, and the cells were suspended well. Each of the mixture was then allowed to react at 37° C. for 60 minutes. The number of cells was adjusted, and then the cells were added dropwise to a 384-well plate. The plate was centrifuged to spin down the cells.
The fluorescence filter set: EX (excitation wavelength) 402±7.5, DM 430 or longer, BA (fluorescence wavelength) 625±15.

For test [3], the system named is human gastric cancer cells (SNU-1). As to the kind of experiment: Labeled sugar incorporation, fluorescence microscopy image analysis (positive rate). The note with it: threshold value 490.
Excerpt: In accordance with the conventional method, cultured human fibrosarcoma cell line HT1080 (DS Pharma Biomedical Co., Ltd.) was harvested with trypsin (Invitrogen). The human gastric cancer cell line SNU-1 (ATCC), which is a suspension cell line, was directly harvested without any trypsin treatment. The cell suspension of the harvested cancer cells was centrifuged, and the supernatant was removed. The cells were resuspended with Dulbecco's PBS (−) (Nissui Pharmaceutical Co., Ltd.) and centrifuged, and the supernatant was removed again.
The number of the cells was counted for each cell line using a hemacytometer in accordance with the conventional method, and then 10^5 to 10^6 cells per sample (cell suspension) was aliquoted. Each of the sample was centrifuged to remove the supernatant. Subsequently, 2-NBDG (Wako Pure Chemical Industries, Ltd.; at the final concentration given in Table 3 or 4) dissolved in Dulbecco's PBS (−) was added thereto, and the cells were suspended well. […] The image was captured with a fluorescence microscope (Nikon Corp.) using B-2A filter combination (Nikon Corp.). […] EX (excitation wavelength): 475±15 nm, DM: 505 nm or longer, BA (fluorescence wavelength) 520 nm or longer.
as §1

Setting [4] is: Ascorbic acid 0.3 mM, FeC12 0.3 mM.

Take `NCC(=O)CCC(=O)O` [aminolevulinic acid, 5-amino-4-oxopentanoic acid]: the “Positive rate (Cancer cells)” value in test [1] (Prostate cancer, hemolyzed, 0.3 mM, 60 min, 37° C., threshold value 265) was 92.7%. Also, the “Positive rate (PC3 cells)” value was 44% in test [1] (hemolyzed, 0.1 mM, 37° C., 60 min); 85% in test [1] (hemolyzed, 0.3 mM, 37° C., 60 min (concentration series)); 88% in test [1] (hemolyzed, 1 mM, 37° C., 60 min); 31% in test [1] (hemolyzed, 4° C., 0.3 mM, 60 min); 54% in test [1] (hemolyzed, 23° C., 0.3 mM, 60 min); 80% in test [1] (hemolyzed, 37° C., 0.3 mM, 60 min (temperature series)). The “Positive rate (PC3 cells)” value in test [1] (hemolyzed, 30 min, 0.3 mM, 37° C.) worked out at 59%; in test [1] (hemolyzed, 60 min, 0.3 mM, 37° C. (time series)) it was 93%; in test [1] (hemolyzed, 120 min, 0.3 mM, 37° C.) it was 92%; in test [1] (without hemolyzing treatment, 0.1 mM, 37° C., 60 min) it was 54%; in test [1] (without hemolyzing treatment, 0.3 mM, 37° C., 60 min (concentration series)), 88%; in test [1] (without hemolyzing treatment, 1 mM, 37° C., 60 min) it was 94%. In addition, the “Positive rate (PC3 cells)” value was found to be 13% in test [1] (without hemolyzing treatment, 4° C., 0.3 mM, 60 min); 18% in test [1] (without hemolyzing treatment, 23° C., 0.3 mM, 60 min); 83% in test [1] (without hemolyzing treatment, 37° C., 0.3 mM, 60 min (temperature series)); 80% in test [1] (without hemolyzing treatment, 30 min, 0.3 mM, 37° C.); 81% in test [1] (without hemolyzing treatment, 60 min, 0.3 mM, 37° C. (time series)); 84% in test [1] (without hemolyzing treatment, 120 min, 0.3 mM, 37° C.). Also, the “Negative rate (Normal epithelial cells (NHDF))” value is recorded as 37.7% in test [2] (Ascorbic acid 0, FeC12 0) and 85.7% in test [2] (setting [4]). Also, the “Positive rate (Normal epithelial cells (NHDF))” value came out at 62.3% in test [2] (Ascorbic acid 0, FeC12 0) and 14.3% in test [2] (setting [4]).

As to `O=[N+]([O-])c1ccc(N[C@H]2C(O)O[C@H](CO)[C@@H](O)[C@@H]2O)c2nonc12` (stereo partly drawn) [2-NBDG, 2-[N-(7-nitrobenz-2-oxa-1,3-diazol-4-yl)amino]-2-deoxy-D-glucose], the “Positive rate (Cancer cells)” value in test [3] (hemolyzed, 10 mM, 5 min, 23° C.) came to 50.0%; in test [3] (single, Glucose conc.: 1 mM, Temp.: 37° C., Time: 30 min), 50.0%.
